Test results published in patent US11685785B2, “Methods and antibodies for modulation of immunoresponse” (Ascendo Biotechnology, Inc., priority 2015, dated 2023).

System: LPS-primed monocytes
Experiment: Surface molecule expression on LPS-primed human monocytes (flow cytometry)
Format: cell-based
Conditions: LPS 100 ng/ml, 18 hr, 10 μM compound vs DMSO control; flow cytometry MFI
Procedure: Human monocytes were stimulated with LPS (100 ng/ml) in the presence of either an isotype control IgG, or anti-CD11b antibody (ICRF44) for 18 hr. The cells were harvested and HLA-DR, PD-L1, CD80 and CD86 molecules were analyzed using flow cytometry. Surface molecule expression is presented as the MFI. Values are presented as the mean±SEM from 3 independent experiments.
FIGS. 2 A and B show the effect of cell adhesion to fibrinogen and reduction of PD-L1 expression by binding CD11b, respectively. […] 25000 of K562/CD11b cells adhered to the bottom of fibrinogen (20 μg/ml)-coated wells in the presence of 10 μM ML-C19-A or DMSO at 37° C. for 20 min. The results were quantitated by luciferase-based CellTiter-Glo (Promega CO.). Each bar represents mean±SEM of triplicate determinations from a representative experiment. […] Human monocytes were stimulated with LPS (100 ng/ml) in the presence of either DMSO control or 10 μM of ML-C19-A for 18 hr. The cells were harvested and PD-L1 molecules were analyzed using flow cytometry. Surface molecule expression is presented as the MFI. Values are presented as the mean±SEM from 10 independent experiments.
Primed-monocytes were incubated in the presence of either an isotype control IgG, anti-CD11b antibody (ICRF44) or humanized anti-CD11b antibodies for 18 hr. The cells were harvested and PD-L1 expression on monocytes was analyzed using flow cytometry. […]

NS(=O)(=O)c1ccc(N2C(=O)c3cccc4cccc(c34)C2=O)cc1 [ML-C19-A]
PD-L1 expression in LPS-primed monocytes: inhibitory
